According to ChEMBL document CHEMBL1201862, “PubChem BioAssay data set” (2004):
“And” between values parts separate entries of the source, which are not always exact repeats. Equal entries are not always repeated. The source made the active and inactive calls.

Columns and labels:
[1] = HEp-2 cell cytotoxicity, dose response, cytotoxicity control for RSV inhibitor project, HTS (AID 2410); format: functional; conditions: human respiratory syncytial virus
[2] = cells
[3] = target: Glyceraldehyde-3-phosphate dehydrogenase (Homo sapiens, UniProt P04406)
Sequence of Glyceraldehyde-3-phosphate dehydrogenase (P04406 whole entry): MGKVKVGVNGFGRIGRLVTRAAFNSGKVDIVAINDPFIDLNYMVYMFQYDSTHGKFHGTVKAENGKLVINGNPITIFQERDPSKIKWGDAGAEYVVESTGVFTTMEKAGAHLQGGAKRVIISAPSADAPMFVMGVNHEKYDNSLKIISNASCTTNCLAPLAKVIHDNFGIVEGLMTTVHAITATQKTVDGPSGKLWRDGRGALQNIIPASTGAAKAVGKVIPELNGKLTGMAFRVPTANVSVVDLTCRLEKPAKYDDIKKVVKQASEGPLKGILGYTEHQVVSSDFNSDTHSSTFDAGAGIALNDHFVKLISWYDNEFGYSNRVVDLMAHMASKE

[4] = target: Cytochrome P450 2C9 (Homo sapiens, UniProt P11712); conditions: Potency
Sequence of Cytochrome P450 2C9 (P11712 whole entry): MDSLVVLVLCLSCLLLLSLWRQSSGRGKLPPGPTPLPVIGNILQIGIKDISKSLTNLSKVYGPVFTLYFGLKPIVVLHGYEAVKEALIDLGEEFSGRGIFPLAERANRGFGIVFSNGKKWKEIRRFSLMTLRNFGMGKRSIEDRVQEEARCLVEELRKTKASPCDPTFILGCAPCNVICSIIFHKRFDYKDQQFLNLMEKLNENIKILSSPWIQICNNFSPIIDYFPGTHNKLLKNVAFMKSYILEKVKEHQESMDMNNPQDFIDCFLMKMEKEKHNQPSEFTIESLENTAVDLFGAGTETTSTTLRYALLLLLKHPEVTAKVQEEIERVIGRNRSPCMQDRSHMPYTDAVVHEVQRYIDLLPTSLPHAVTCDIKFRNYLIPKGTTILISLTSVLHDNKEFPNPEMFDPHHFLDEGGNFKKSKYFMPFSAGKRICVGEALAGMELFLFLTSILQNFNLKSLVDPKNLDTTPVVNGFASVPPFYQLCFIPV

[5] = target: Cytochrome P450 3A4 (Homo sapiens, UniProt P08684); conditions: Potency;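 further: confirmatory qHTS run detecting inhibitors and substrates of CYP3A4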
Sequence of Cytochrome P450 3A4 (P08684 whole entry): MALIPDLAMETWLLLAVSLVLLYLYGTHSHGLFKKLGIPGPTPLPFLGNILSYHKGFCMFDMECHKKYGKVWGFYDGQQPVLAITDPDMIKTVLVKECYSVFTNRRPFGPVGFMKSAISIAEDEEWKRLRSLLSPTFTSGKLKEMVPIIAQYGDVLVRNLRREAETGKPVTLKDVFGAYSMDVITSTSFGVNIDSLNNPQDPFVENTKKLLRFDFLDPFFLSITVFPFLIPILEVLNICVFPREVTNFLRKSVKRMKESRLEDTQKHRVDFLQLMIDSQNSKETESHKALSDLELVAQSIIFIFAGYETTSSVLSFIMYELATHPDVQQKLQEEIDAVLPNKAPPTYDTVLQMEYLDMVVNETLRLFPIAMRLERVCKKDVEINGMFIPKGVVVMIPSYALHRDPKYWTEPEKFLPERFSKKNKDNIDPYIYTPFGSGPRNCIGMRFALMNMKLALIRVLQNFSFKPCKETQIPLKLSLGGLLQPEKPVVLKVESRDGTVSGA

[6] = target: T1, Alkaline phosphatase, tissue-nonspecific isozyme (Homo sapiens, UniProt P05186); assay: human TNAP enzyme inhibitors, SAR follow-up, biochemical, luminescent, dose response (AID 1056)
T1 sequence (P05186 whole entry): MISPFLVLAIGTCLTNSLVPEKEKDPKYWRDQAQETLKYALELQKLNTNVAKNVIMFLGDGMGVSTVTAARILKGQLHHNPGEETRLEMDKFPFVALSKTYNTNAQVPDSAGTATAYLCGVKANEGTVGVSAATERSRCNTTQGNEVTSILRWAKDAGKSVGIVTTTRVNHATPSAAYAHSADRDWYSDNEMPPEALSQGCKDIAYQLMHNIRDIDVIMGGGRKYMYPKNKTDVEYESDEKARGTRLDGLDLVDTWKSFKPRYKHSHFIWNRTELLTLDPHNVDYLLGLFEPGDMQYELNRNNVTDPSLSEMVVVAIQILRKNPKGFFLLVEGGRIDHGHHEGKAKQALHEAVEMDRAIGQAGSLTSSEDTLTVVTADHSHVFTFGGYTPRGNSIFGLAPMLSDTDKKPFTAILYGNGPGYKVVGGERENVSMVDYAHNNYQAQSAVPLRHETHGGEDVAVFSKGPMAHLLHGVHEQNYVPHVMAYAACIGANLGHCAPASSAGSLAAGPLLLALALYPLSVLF

[7] = target: T2, Estrogen receptor (Homo sapiens, UniProt P03372);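 further: potency for inhibiting coactivator peptide recruitment to the receptor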
T2 sequence (P03372 whole entry): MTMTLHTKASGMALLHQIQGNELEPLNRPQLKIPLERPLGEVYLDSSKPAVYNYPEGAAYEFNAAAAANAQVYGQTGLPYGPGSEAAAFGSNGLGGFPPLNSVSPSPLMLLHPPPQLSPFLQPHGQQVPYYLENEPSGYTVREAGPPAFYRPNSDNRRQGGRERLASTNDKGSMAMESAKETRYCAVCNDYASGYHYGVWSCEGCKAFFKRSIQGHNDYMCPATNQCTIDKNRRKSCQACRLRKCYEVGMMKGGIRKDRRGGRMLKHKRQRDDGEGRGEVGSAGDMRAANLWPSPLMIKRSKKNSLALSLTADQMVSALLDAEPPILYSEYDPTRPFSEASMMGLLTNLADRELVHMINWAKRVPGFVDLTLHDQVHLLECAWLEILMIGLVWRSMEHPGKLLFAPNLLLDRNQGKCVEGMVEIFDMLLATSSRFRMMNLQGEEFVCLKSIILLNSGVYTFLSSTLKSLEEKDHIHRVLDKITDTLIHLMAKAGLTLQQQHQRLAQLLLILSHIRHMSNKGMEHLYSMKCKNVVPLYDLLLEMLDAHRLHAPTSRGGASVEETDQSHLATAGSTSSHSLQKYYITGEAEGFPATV

IC50 [3]	SMILES	CC50 [1]	IC50 [2]	other results
> 50 µM (inconclusive)	O=C1C(Cl)=C(N2CCN(C/C=C/c3ccccc3)CC2)C(=O)N1c1ccc(C(F)(F)F)cc1	–	–	–
> 10 µM (inconclusive)	COC(=O)c1ccc(OC)c(S(=O)(=O)Nc2ccc3ccccc3c2)c1	–	–	IC50 [6]: > 10 µM (inactive)

Continued, molecule first:

SMILES	IC50 [3]	CC50 [1]	IC50 [2]	other results
Cc1ccc(NC(=O)C2CCCN2S(=O)(=O)c2cccc3cccnc23)c(C)c1 (stereo not given)	–	42.9 µM (active)	1.86 µM (active)	–
COc1ccc(OC2C(O)COC2/C=C/c2ccccc2)cc1 (stereo not given)	–	–	–	AC50 [4]: 3.16 µM (inconclusive) and 2.51 µM (inconclusive); AC50 [5]: 3.16 µM (inconclusive) and 3.98 µM (inconclusive)
COc1ccccc1/C=C/C(=O)N1CCc2cc(OC)c(OC)cc2C1C (stereo not given)	–	> 50 µM (active)	17.8 µM (active)	–
Cc1ccc(NS(=O)(=O)c2cccc(C(=O)OCC(=O)NCc3ccco3)c2)cc1	–	–	–	IC50 [7]: 30.6 µM (not active)
